Like-named read-outs stand apart in the source and are kept apart here.
How the values were obtained:
Type in all cases: cell-based, human
MM96L melanoma cells = assay: Cell survival assay (clonogenic survival, SRB); settings: for SI (Selectivity Index = IC50 (NFF)/IC50 (MM96L)): NFF vs MM96L
Method in brief: (§1)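 Cells (5×10^3/well, RPMI 1640 with 10% FCS) treated 24 h with compound at 0.01-10 μg/mL, then washed and grown 72 h drug-free at 37 °C, 5% CO2. Survival read by SRB staining after methylated-spirit fixation, absorbance 564 nm.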

[1] = tested on: NFF, neonatal foreskin fibroblasts; assay: Cell survival assay (clonogenic survival, SRB), normal cells; settings: SRB
Method in brief: as §1

[2] = tested on: DU145 prostate cancer cells; assay: Cell survival assay (SRB); settings: DU145 (prostate); read-out: Cytoselectivities (nM) DU145
Method: (§2) Cell Lines and Culture Medium. All cell lines used in this study have been described previously (Parsons et al., 1986; Todaro et al., 1980; Glenn et al., 2004). All cell lines were cultured in 10% heat-inactivated foetal calf serum (CSL, Australia) in RPMI 1640 medium supplemented with 100 U/mL penicillin, 100 μg/mL streptomycin, and 3 mM HEPES at 5% CO2, 99% humidity at 37° C. Primary human fibroblasts were obtained from neonatal foreskins and cultured in the above medium. Routine mycoplasma tests were performed using Hoechst stain^i and were always negative.
(§3) Cell Survival Assay. Cells were plated into 96-well microtitre plates at 5×10^3 cells/well, and allowed to adhere overnight. Test compounds were added to culture medium at the indicated concentrations, and plates incubated in the above conditions for 24 hours. Following this incubation period, compounds and media were removed, and replaced with fresh culture medium. Cells were then grown for a further 72 hours before assay using sulforhodamine B (SRB; Sigma, St. Louis, Mo.) as previously described. Briefly, the culture medium was removed from the 96-well microtitre plates and the plates washed twice with phosphate buffered saline (PBS), before the cells were fixed with methylated spirits for 15 minutes. The plates were then rinsed with tap water and the fixed cells stained with 50 μL/well of SRB solution (0.4% sulforhodamine B (w/v) in 1% (v/v) acetic acid) over a period of 1 hour. The SRB solution was then removed from the wells and the plates rapidly washed two times with 1% (v/v) acetic acid. Protein bound dye was then solubilised with the addition of 100 μL of 10 mM unbuffered Tris, and incubated for 15 min at 25° C. Plates were then read at 564 nm on a VERSA max tunable microplate reader (Molecular Devices, Sunnyvale, Calif.).
(§4) For comparison their results are also shown for MM96L and NFF cell lines.

SkMel28 melanoma cells = assay: Cell survival assay (SRB); settings: SK-MEL-28 (melanoma); read-out: Cytoselectivities (nM) SK-MEL-28
Method: as §2, §3, §4

JAM ovarian cancer cells = assay: Cell survival assay (SRB); settings: JAM; read-out: Cytoselectivities (nM) JAM
Method: as §2, §3, §4

[3] = tested on: MCF-7 breast cancer cells; assay: Cell survival assay (SRB); settings: MCF-7 (breast); read-out: Cytoselectivities (nM) MCF-7
Method: as §2, §3, §4

[4] = tested on: CI-80-13S ovarian cancer cells; assay: Cell survival assay (SRB); settings: CI80-13S; read-out: Cytoselectivities (nM) CI80-13S
Method: as §2, §3, §4

H520 cells = assay: Cell survival assay (SRB); settings: H520; read-out: Cytoselectivities (nM) H520
Method: as §2, §3

PC-3 cells = assay: Cell survival assay (SRB); settings: PC-3; read-out: Cytoselectivities (nM) PC-3
Method: as §2, §3

T-47D cells = assay: Cell survival assay (SRB); settings: T-47D; read-out: Cytoselectivities (nM) T-47D
Method: as §2, §3

SK-MEL-5 cells = assay: Cell survival assay (SRB); settings: SK-MEL-5; read-out: Cytoselectivities (nM) SK-MEL-5
Method: as §2, §3

HOP62 cells = assay: Cell survival assay (SRB); settings: HOP62 (lung); read-out: Cytoselectivities (nM) HOP62
Method: as §2, §3

A549 cells = assay: Cell survival assay (SRB); settings: A549 (lung); read-out: Cytoselectivities (nM) A549
Method: as §2, §3

HT29 cells = assay: Cell survival assay (SRB); settings: HT29 (colon); read-out: Cytoselectivities (nM) HT29
Method: as §2, §3

[5] = Table 5, 24 hours with compound, further growth, SRB, read-out: IC50 MM96L
[6] = Table 5, Selectivity Index = IC50 (NFF)/IC50 (MM96L)
[7] = Table 5, 24 hours with compound, further growth, read-out: IC50 NFF
[8] = MM96L melanoma, 24 h with compound, further 72 h growth, SRB, read-out: IC50 (uM) MM96L
[9] = NFF normal fibroblasts, 24 h with compound, further 72 h growth, read-out: IC50 (uM) NFF
[10] = Table 8, 24 hours with compound, further growth, SRB, read-out: IC50 (μM) MM96
[11] = Table 8, IC50 (NFF)/IC50 (MM96L)
[12] = Table 8, 24 hours with compound, further growth, read-out: IC50 (μM) NFF

In the case of `C/C=C/C(=O)N[C@@H](CSCCCC(=O)NO)C(=O)NCc1ccccc1` [Example 52], the IC50 (MM96L melanoma cells; [5]) is reported as 11 ± 0.7 µM, the Selectivity (MM96L melanoma cells; [6]) is reported as over 9 and the IC50 [1, 7] is reported as over 100 µM.
For `O=C(CCCSC[C@H](NC(=O)c1cccs1)C(=O)NCc1ccccc1)NO` [Example 33], the IC50 (MM96L melanoma cells; [5]) was 2.5 ± 0.2 µM, the Selectivity (MM96L melanoma cells; [6]) was 3.6 and the IC50 [1, 7] was 9 ± 1 µM.
With `O=C(CCCCCC(NC(=O)OCc1ccccc1)C(=O)NC1CCCc2ccccc21)NO` (stereo not shown) [Example 156] the IC50 (MM96L melanoma cells; [8]) was 1.71 µM, the “SI (Selectivity Index = IC50 (NFF)/IC50 (MM96L))” value (MM96L melanoma cells) was 1 and the IC50 [1, 9] was 1.71 µM.
Work on `CC(C)CNC(=O)c1ccc(CNC(=O)[C@H](CSCCCC(=O)NO)NC(=O)c2ccc(N(C)C)cc2)cc1` [Example 104] yielded an IC50 (MM96L melanoma cells; [10]) of 1.62 µM, a Selectivity (MM96L melanoma cells; [11]) of 5.0 and an IC50 [1, 12] of 8.08 µM.
With `O=C(CCCCC[C@H](NC(=O)C12CC3CC(CC(C3)C1)C2)C(=O)NCc1ccccc1)NO` [Example 139] the IC50 (MM96L melanoma cells; [8]) was 3.95 µM, the “SI (Selectivity Index = IC50 (NFF)/IC50 (MM96L))” value (MM96L melanoma cells) was 1.8 and the IC50 [1, 9] was 7.13 µM.
`CN(C)c1ccc(C(=O)N[C@@H](CSCCCC(=O)NO)C(=O)NC2CCCC2)cc1` [Example 89] was tested, and the IC50 (MM96L melanoma cells; Homo sapiens, MM96L, 24 h, Table 6, 24 hours with compound, further growth, SRB, read-out: IC50 (μM) MM96L) was 1.5 ± 0.1 µM, the Selectivity (MM96L melanoma cells; Table 6, IC50 (NFF)/IC50 (MM96L)) was 1.7 and the IC50 ([1]; Homo sapiens, Fibroblast, 24 h, Table 6, 24 hours with compound, further growth, read-out: IC50 (μM) NFF) was 2.6 ± 0.3 µM.
In the case of `CN(C)c1ccc(NC(=O)[C@H](CCCCCC(=O)NO)NC(=O)OCc2ccccc2)cc1` [Example 151], the IC50 (MM96L melanoma cells; Homo sapiens, MM96L, MM96L melanoma, 24 h with compound, further 72 h growth, SRB, read-out: IC50 (uM) MM96L) is reported as 0.61 µM, the “SI (Selectivity Index = IC50 (NFF)/IC50 (MM96L))” value (MM96L melanoma cells) is reported as 1.1 and the IC50 ([1]; Homo sapiens, Fibroblast, NFF normal fibroblasts, 24 h with compound, further 72 h growth, read-out: IC50 (uM) NFF) is reported as 0.65 µM.
With `CN(C)c1ccc(C(=O)N[C@H](CCCCCC(=O)NO)C(=O)Nc2cccc3cccnc23)cc1` [126 R] the IC50 [2] was 52 nM, the IC50 (SkMel28 melanoma cells) was 57 nM and the IC50 (JAM ovarian cancer cells) was 251 nM. For the same compound, the IC50 [3] was 40 nM, the IC50 [4] was 43 nM and the IC50 (MM96L melanoma cells; MM96L, Table 12, read-out: Cytoselectivities (nM) MM96L) was 0.038 µM. For the same compound, the IC50 (H520 cells) was 188 nM, the IC50 (PC-3 cells) was 387 nM and the IC50 (T-47D cells) was 63 nM. The IC50 (SK-MEL-5 cells) was 44 nM, the IC50 (HOP62 cells) was 147 nM and the IC50 (A549 cells) was 191 nM. It also gave an IC50 (HT29 cells) of 199 nM.
`CN(C)c1ccc(C(=O)N[C@@H](CSCCCC(=O)NO)C(=O)NCc2ccc(C(=O)Nc3ccccc3)cc2)cc1` [Example 121] was tested, and the IC50 (MM96L melanoma cells; [10]) was 1.41 µM, the Selectivity (MM96L melanoma cells; [11]) was 8.2 and the IC50 [1, 12] was 11.6 µM.
